The experiment addresses T1, GLR-1(+STG-1, SOL-1) (Caenorhabditis elegans, UniProt P34299).
T1 construct: cRNAs of GLR-1, SOL-1 and STG-1 co-injected into Xenopus laevis oocytes; homomeric GLR-1 with auxiliary proteins; with CUB domain-containing protein SOL-1 (suppressor of lurcher 1); Stargazin-like protein STG-1
T1 sequence (P34299 26-962): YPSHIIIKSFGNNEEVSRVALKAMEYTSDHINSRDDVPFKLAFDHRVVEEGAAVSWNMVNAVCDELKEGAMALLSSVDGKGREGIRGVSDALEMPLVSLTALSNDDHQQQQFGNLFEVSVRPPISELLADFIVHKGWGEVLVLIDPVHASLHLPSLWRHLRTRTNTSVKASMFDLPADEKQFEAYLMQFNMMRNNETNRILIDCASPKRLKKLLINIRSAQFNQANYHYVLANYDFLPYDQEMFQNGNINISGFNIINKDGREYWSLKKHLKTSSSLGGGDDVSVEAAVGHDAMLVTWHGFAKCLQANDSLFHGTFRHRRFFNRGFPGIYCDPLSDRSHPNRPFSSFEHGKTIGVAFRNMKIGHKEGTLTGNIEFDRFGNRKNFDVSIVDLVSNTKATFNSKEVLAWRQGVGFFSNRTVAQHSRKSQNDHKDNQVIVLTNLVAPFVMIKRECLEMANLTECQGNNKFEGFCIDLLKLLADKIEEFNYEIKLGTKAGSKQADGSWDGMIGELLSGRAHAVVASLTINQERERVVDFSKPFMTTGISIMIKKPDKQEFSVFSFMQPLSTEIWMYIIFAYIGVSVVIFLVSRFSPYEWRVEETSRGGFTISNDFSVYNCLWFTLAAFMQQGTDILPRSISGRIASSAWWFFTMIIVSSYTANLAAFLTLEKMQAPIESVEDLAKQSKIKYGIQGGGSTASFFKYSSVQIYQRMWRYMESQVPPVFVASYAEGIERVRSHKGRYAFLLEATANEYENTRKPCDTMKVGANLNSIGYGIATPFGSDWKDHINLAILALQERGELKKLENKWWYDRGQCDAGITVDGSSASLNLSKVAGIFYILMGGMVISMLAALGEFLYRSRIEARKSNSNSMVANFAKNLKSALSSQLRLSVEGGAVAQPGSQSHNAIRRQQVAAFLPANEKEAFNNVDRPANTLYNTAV
T1 sequence (Q15KL0 1-366 partner): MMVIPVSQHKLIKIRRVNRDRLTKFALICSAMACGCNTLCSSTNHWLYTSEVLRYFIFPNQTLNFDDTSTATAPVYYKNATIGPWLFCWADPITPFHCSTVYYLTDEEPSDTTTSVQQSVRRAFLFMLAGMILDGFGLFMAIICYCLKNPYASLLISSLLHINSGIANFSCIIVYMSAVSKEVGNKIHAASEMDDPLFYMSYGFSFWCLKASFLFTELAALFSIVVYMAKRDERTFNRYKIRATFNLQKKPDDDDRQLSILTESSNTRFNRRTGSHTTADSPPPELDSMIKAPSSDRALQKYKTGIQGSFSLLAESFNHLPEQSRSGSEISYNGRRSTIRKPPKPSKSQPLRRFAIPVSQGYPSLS
T1 sequence (Q93212 24-594 partner): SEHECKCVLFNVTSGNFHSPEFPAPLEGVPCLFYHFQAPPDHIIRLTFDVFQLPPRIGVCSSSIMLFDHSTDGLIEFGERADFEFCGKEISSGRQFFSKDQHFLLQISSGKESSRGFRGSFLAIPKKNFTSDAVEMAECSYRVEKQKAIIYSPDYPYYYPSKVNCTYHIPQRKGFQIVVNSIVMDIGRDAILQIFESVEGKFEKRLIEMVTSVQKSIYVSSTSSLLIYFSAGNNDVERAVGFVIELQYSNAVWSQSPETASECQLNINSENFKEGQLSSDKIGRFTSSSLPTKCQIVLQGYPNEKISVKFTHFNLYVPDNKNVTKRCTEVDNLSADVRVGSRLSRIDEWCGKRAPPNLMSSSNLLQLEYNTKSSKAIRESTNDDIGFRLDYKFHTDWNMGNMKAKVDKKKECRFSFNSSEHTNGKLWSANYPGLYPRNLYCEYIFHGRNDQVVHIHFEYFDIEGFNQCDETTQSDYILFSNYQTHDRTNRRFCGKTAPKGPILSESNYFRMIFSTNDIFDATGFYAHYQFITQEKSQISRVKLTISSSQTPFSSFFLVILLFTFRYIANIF
Kind of experiment: two-electrode voltage clamp of Xenopus oocytes, glutamate dose-response current. The experiment is classed as cell-based. To be noted: agonist; inward cation current; with SOL-1 and STG-1; clamped -50 to -60 mV; pH 7.2; 0.1-10 mM glutamate for 20 s. A general note: Two-electrode voltage clamp holds a large cell at a set potential and records current.

In the case of `N[C@@H](CCC(=O)O)C(=O)O` [glutamate], the “two-electrode voltage clamp of Xenopus oocytes, glutamate dose-response current” value is given as “Dose-response relationship of GLR-1-expressing Xenopus oocyte”.

The values are drawn from paper PMC9142520, “Molecular encoding and synaptic decoding of context during salt chemotaxis in C. elegans” (Nature Communications, 2022).
